Assay results from patent publication EP0656355A1, “BIPHENYLMETHANE DERIVATIVE AND MEDICINE CONTAINING THE SAME” (WAKUNAGA SEIYAKU KABUSHIKI KAISHA, priority 1992, dated 1994).

Columns and labels:
[1] = target: T1, angiotensin II (AII) receptor (Rattus norvegicus, UniProt P25095); test: Inhibitory action against the binding with angiotensin II (AII) receptor, 125I-AII competition on cultured rat aortic smooth muscle cells; parameters: species or system male Wistar rat; conditions: 50% substitution of ¹²⁵I-AII specific binding; ¹²⁵I-AII 2 x 10⁻¹⁰M; one hour at room temperature; rat vascular smooth muscle cells; read-out: IC₅₀
T1 construct: Vascular smooth muscle cells, which had been separated from the aorta of a male Wistar rat and cultured on a 24-well multiplate; endogenous in cells; host or cells: primary cultured vascular smooth muscle cells from the aorta of a male Wistar rat
T1 sequence (P25095 1-359): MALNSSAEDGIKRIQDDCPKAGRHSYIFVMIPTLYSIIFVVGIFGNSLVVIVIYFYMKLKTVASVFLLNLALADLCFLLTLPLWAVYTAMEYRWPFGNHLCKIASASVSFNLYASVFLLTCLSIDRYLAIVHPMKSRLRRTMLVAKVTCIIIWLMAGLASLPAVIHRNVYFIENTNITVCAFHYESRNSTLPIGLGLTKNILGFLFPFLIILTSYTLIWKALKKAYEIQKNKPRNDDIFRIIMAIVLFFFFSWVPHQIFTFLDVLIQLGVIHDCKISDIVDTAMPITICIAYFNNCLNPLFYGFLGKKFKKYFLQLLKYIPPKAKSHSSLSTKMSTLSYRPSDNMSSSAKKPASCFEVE
Protocol: (1) Inhibitory action against the binding with angiotensin II (AII) receptor, using cultured rat aortic smooth muscle cells The present test was conducted in accordance with the method reported by Chiu et al. in European Journal of Pharmacology, 157, 13-21(1988), though after some modifications. […] To each well, ¹²⁵I-AII (final concentration: 2 x 10⁻¹⁰M) was added together with or without a test compound to give a total volume of 0.2 mℓ. Then the wells were incubated for one hour at room temperature to make the ¹²⁵I-AII and the test compound competitively bind to the vascular smooth muscle cells. Each well was thereafter washed with an ice-cold buffer three times to remove unbound ¹²⁵I-AII. To the cells, 0.2 mℓ of a 1 mol/ℓ solution of sodium hydroxide was added to solubilize the bound ¹²⁵I-AII. A bound amount of ¹²⁵I-AII contained in the resulting cell solution was measured by a gamma counter. The above test was conducted for each compound at different concentrations of 3 doses or more. The inhibition rate against the specific binding with ¹²⁵I-AII at each concentration was calculated in accordance with an equation to be set out subsequently herein.

[2] = tested on: angiotensin II contraction in longitudinal ileac muscles; test: Inhibitory activity to angiotensin II contraction in longitudinal ileac muscles excised from a guinea pig; format: cell-based, Hartley male guinea pig; conditions: Cavia porcellus, 20 min; 50% contraction inhibition concentration; 10⁻⁸M angiotensin II; test compound reacted for 20 minutes; guinea pig ileum longitudinal muscle; read-out: IC₅₀
Protocol: (2) Inhibitory activity to angiotensin II contraction in longitudinal ileac muscles excised from a guinea pig
A Hartley male guinea pig (350-450 g in weight) was sacrificed under exsanguination, followed by the excision of its ileum.
A longitudinal muscle tissue (2 cm long) was prepared from the ileum in a manner known per se in the art. The sample was suspended in a 20-mℓ Magnus cylinder filled with a Tylode solution [composition (mM): NaCℓ 137, KCℓ 2.7, CaCℓ₂ 1.88, MgCℓ₂ 1.1, NaH₂PO₄ 0.4, NaH₂CO₃ 11.8 and glucose 5.6). The Tylode solution was incubated at 37°C and saturated with a mixed gas consisting of 95% O₂ + 5% CO₂. Using an isometric transducer ("TB-611T", manufactured by Nihon Kohden Corporation), variations in contraction were measured. The measurement results were recorded on a computer ("PC-9801", manufactured by NEC Corporation).
Under a load of 0.5 g initial tension, the longitudinal muscle sample was equilibrated in a nutrient solution for about one hour while being washed therewith at intervals of 15 minutes. Then, contracture by the administration of 80 mM of KCℓ was repeated twice. After conforming that the contraction occurred stably, the following test was conducted.
First, 10^-8M angiotensin II was administered to the sample and its maximum contraction was recorded. The test compound was then administered to the sample and they were reacted for 20 minutes. Administered again was 10⁻⁸M angiotensin II and the maximum contraction was measured. […] This test was repeated at increased concentrations of the test compound. A 50% contraction inhibition concentration (IC₅₀) was determined in accordance with a linear regressive calculation of the contraction inhibition rates.

[3] = tested on: renal hypertensive rats; test: Antihypertensive action on renal hypertensive rats (invasive); format: in vivo, male SD rat; conditions: decreased rate of mean blood pressure; orally administered at 3 mg/kg; femoral artery cannula
Excerpt: (4) Antihypertensive action on renal hypertensive rats (invasive)
Renal hypertensive rats were each prepared by constricting the left renal artery of a male SD rat (age: 6 weeks old, body weight: 190-220 g) with a silver clip (inner diameter: 0.017 inch) under anesthesia. Antihypertensive action was studied employing the rats whose mean blood pressure arose to 150 mmHg or higher in 4-8 weeks after the constriction of the renal artery. On the day before the test, a cannula for measure of blood pressure was inserted into the femoral artery of each of the renal hypertensive rats under anesthesia and was allowed to remain in the artery. The rats were maintained on food and water ad libitum until immediately before the test was started. The cannula so inserted was connected to a blood pressure transducer and mean blood pressure was recorded on a polygraph. After the blood pressure became stable, the test compound which was suspended in 0.5% carboxymethyl cellulose was orally administered to each of the rats at 3 mg/kg. In accordance with the following equation, a decreased rate of blood pressure (%) was calculated from the blood pressure values before and after the administration of the test compound. [formula]

[4] = tested on: renal hypertensive rats; test: Antihypertensive action on renal hypertensive rats (non-invasive); format: in vivo, male SD rat; conditions: decreased rate of systolic blood pressure; orally administered at 10 mg/kg; non-invasive sphygmomanometer
Excerpt: (3) Antihypertensive action on renal hypertensive rats (non-invasive)
Renal hypertensive rats were each prepared by constricting the left renal artery of a male SD rat (age: 6 weeks old, body weight: 200-220 g) with a silver clip (inner diameter: 0.017 inch) under anesthesia. The rats whose systolic blood pressure arose to 160 mmHg or higher in 4-8 weeks after the constriction of the renal artery were used for the test. The rats were maintained on food and water ad libitum until immediately before the test was started. Each test compound which was suspended in 0.5% methyl cellulose was orally administered at 10 mg/kg. After the administration of the test compound, the systolic blood pressure was measured periodically by a non-invasive sphygmomanometer ("BP-98", manufactured by SOFTLON K.K.). In accordance with the following equation, a decreased rate of blood pressure (%) was calculated from the blood pressure values before and after the administration of the compound. [formula]

Row | Structure (SMILES) | IC50 [1] | IC50 [2] | Maximum action (%) [3] | Maximum action (%) [4]
1 | CCCC(=O)N=c1sc(C2CC2)nn1Cc1ccc(-c2ccccc2-c2nnn[nH]2)cc1 [Compound No.11, 2-Butyrylimino-5-cyclopropyl-3-[2'-(1H-tetrazol-5-yl)biphenyl-4-yl]methyl-1,3,4-thiadiazoline] | 6.5 nM | 26 nM | – | –
2 | CCCCc1nnc(N(Cc2ccc(-c3ccccc3-c3nn[nH]n3)cc2)C(=O)CCC)s1 [Compound No.14, 2-[N-Butyryl-N-(2'-(1H-tetrazol-5-yl)biphenyl-4-yl)methyl]amino-5-n-butyl-1,3,4-thiadiazole] | 9.8 nM | 36 nM | – | –
3 | O=C(O)c1csc(=NC(=O)C2CC2)n1Cc1ccc(-c2ccccc2-c2nnn[nH]2)cc1 [Compound No.242, 2-Cyclopropylcarbonylimino-3-[2'-(1H-tetrazol-5-yl)biphenyl-4-yl]methylthiazoline-4-carboxylic acid] | 13 nM | – | 29.5% | –
4 | CCc1nn(Cc2ccc(-c3ccccc3-c3nnn[nH]3)cc2)c(=NC(=O)c2ccccc2Cl)s1 [Compound No.68, 2-(2-Chlorobenzoyl)imino-5-ethyl-3-[2'-(1H-tetrazol-5-yl)biphenyl-4-yl]methyl-1,3,4-thiadiazoline] | 5.7 nM | – | – | –
5 | CCCc1nn(Cc2ccc(-c3ccccc3-c3nnn[nH]3)cc2)c(=NC(=O)C2CC2)s1 [Compound No.21, 2-Cyclopropylcarbonylimino-5-n-propyl-3-[2'-(1H-tetrazol-5-yl)biphenyl-4-yl]methyl-1,3,4-thiadiazoline] | – | 8 nM | – | 26.3%
6 | Cc1nn(Cc2ccc(-c3ccccc3-c3nnn[nH]3)cc2)c(=NC(=O)C2CC2)s1 [Compound No.17, 2-Cyclopropylcarbonylimino-5-methyl-3-[2'-(1H-tetrazol-5-yl)biphenyl-4-yl]methyl-1,3,4-thiadiazoline] | – | 7.5 nM | – | 25.9%
7 | CCCCC(=O)N=c1sc(CC)nn1Cc1ccc(-c2ccccc2-c2nnn[nH]2)cc1 [Compound No.31, 2-Valerylimino-5-ethyl-3-[2'-(1H-tetrazol-5-yl)biphenyl-4-yl]methyl-1,3,4-thiadiazoline] | 17 nM | – | – | –
8 | CCc1nn(Cc2ccc(-c3ccccc3-c3nnn[nH]3)cc2)c(=NC(=O)C2CC2)s1 [Compound No.19, 2-Cyclopropylcarbonylimino-5-ethyl-3-[2'-(1H-tetrazol-5-yl)biphenyl-4-yl]methyl-1,3,4-thiadiazoline] | 15 nM | – | – | –
9 | CCCC(=O)N(Cc1ccc(-c2ccccc2-c2nn[nH]n2)cc1)c1nnc(C2CC2)s1 [Compound No.12, 2-[N-Butyryl-N-(2'-(1H-tetrazol-5-yl)biphenyl-4-yl)methyl]amino-5-cyclopropyl-1,3,4-thiadiazole] | 32 nM | 28 nM | – | –
10 | CCCC(=O)N=c1sc(CC)nn1Cc1ccc(-c2ccccc2-c2nnn[nH]2)cc1 [Compound No.1, 2-Butyrylimino-5-ethyl-3-[2'-(1H-tetrazol-5-yl)biphenyl-4-yl]methyl-1,3,4-thiadiazoline] | 8 nM | 23 nM | – | –
11 | CCCCc1nn(Cc2ccc(-c3ccccc3-c3nnn[nH]3)cc2)c(=NC(=O)CCC)s1 [Compound No.13, 2-Butyrylimino-5-n-butyl-3-[2'-(1H-tetrazol-5-yl)biphenyl-4-yl]methyl-1,3,4-thiadiazoline] | 14 nM | 24 nM | – | –
12 | CCc1nn(Cc2ccc(-c3ccccc3-c3nnn[nH]3)cc2)c(=NC(=O)C2=C(C(=O)O)CCC2)s1 [Compound No.130, 2-[[5-Ethyl-3-[2'-(1H-tetrazol-5-yl)biphenyl-4-yl]methyl-1,3,4-thiadiazoline-2-yliden]aminocarbonyl]-1-cyclopenten carboxylic acid] | – | 0.65 nM | 41.2% | –
13 | CCCCc1nn(Cc2ccc(-c3ccccc3-c3nnn[nH]3)cc2)c(=NC(=O)CC)s1 [Compound No.7, 2-Propionylimino-5-n-butyl-3-[2'-(1H-tetrazol-5-yl)biphenyl-4-yl]methyl-1,3,4-thiadiazoline] | 6.8 nM | 21 nM | – | –
14 | CCc1nn(Cc2ccc(-c3ccccc3-c3nn[nH]n3)cc2)c(=NC(=O)C2CCCCC2C(=O)O)s1 (racemic) [Compound No.158, cis-2-[[5-Ethyl-3-[2'-(1H-tetrazol-5-yl)biphenyl-4-yl]methyl-1,3,4-thiadiazoline-2-yliden]aminocarbonyl] cyclohxanecarboxylic acid] | – | 0.51 nM | 38.4% | –
15 | CCCCC(=O)N(Cc1ccc(-c2ccccc2-c2nn[nH]n2)cc1)c1nnc(C2CC2)s1 [Compound No.34, 2-[N-Valeryl-N-(2'-(1H-tetrazol-5-yl)biphenyl-4-yl)methyl]amino-5-cyclopropyl-1,3,4-thiadiazole] | 10 nM | – | – | –
16 | CCCC(=O)N(Cc1ccc(-c2ccccc2-c2nn[nH]n2)cc1)c1nnc(CC)s1 [Compound No.2, 2-[N-Butyryl-N-(2'-(1H-tetrazol-5-yl)biphenyl-4-yl)methyl]amino-5-ethyl-1,3,4-thiadiazole] | 13 nM | 11 nM | – | –
17 | CCc1nn(Cc2ccc(-c3ccccc3-c3nnn[nH]3)cc2)c(=NC(=O)c2ccccc2C(=O)O)s1 [Compound No.126, N-[5-Ethyl-3-[2'-(1H-tetrazol-5-yl)biphenyl-4-yl]methyl-1,3,4-thiadiazoline-2-yliden]phthalamic acid] | 32 nM | – | 27.6% | –
18 | O=C(N=c1sc(C2CC2)nn1Cc1ccc(-c2ccccc2-c2nn[nH]n2)cc1)C1CC1 [Compound No.23, 2-Cyclopropylcarbonylimino-5-cyclopropyl-3-[2'-(1H-tetrtazol-5-yl)biphenyl-4-yl]methyl-1,3,4-thiadiazoline] | 31 nM | – | – | –
